# Results taken from patent publication US10940150B2, “Thymine derivatives and quinazoline-dione derivatives for the inhibition of HSP27” (TECHNISCHE UNIVERSITAET DRESDEN, priority 2014, dated 2021).
# Tests used:
# [1] = system: late-stage pancreatic cancer patients; conditions: cited from earlier work
# RPMI-8226 cells = assay: Development of resistance to bortezomib in RPMI-8226 cells; format: cell-based
# HSP27 [2] = biological target: T1, HSP27 (Homo sapiens, UniProt P04792); assay: Spectrophotometric protein aggregation assay (citrate synthase, HSP27 chaperone function); format: biochemical; conditions: 750 μmol/L; 43° C., 500 nm, 1.44 μmol/L CS, 481 nmol/L HSP27
# Protocol: FIG. 1: a spectrophotometric protein aggregation assay at 43° C., a wavelength of 500 nm and a concentrations of the proteins: 1.44 μmol/L citrate synthase (CS), 481 nmol/L HSP27 (HSP) in a 40 mmol/L HEPES buffer (pH 7.4) during treatment with 14 or 28 μmol/L 2-(3-trichlorovinylphenylamino)-1,9-dihydropurin-6-one (CS+HSP+test substance no. 2), with 750 μmol/L BVDU (CS+HSP+BVDU) and without (CS+HSP; reference);
# To measure the efficacy of the purine derivatives according to the invention, robust experiments for the chaperone function of the HSP27 protein were performed:
# A known client protein (=substrate on which HSP27 acts as a chaperone) of HSP27 is citrate synthase. Citrate synthase is denatured when the temperature increases to 43° C. This heat denaturation is prevented or delayed by the presence of HSP27 [Jakob U, 1993]. By adding the novel active ingredients, their efficacy can thus be measured through the inhibition of the HSP27 chaperone function.
# To determine the activity (i.e. the effect on the aggregation behaviour of the citrate synthase (CS) after thermal incubation) of 2-(3-trichlorovinylphenylamino)-1,9-dihydropurin-6-one in comparison to BVDU, four different batches containing 1.44 μmol/L CS, 481 nmol/L HSP27 (HSP) in a 40 mmol/L HEPES buffer (pH 7.4) were prepared and BVDU (750 μmol/L) or various concentrations of 2-(3-trichlorovinylphenylamino)-1,9-dihydropurin-6-one (14 μmol/L; 28 μmol/L) were added. The samples were then incubated at 43° C. and the aggregation behaviour of the CS was […] in a spectrometer (PerkinElmer LS55, PerkinElmer Inc.) at a wavelength of 500 nm.
# It can be seen from FIG. 1 that the protein citrate synthase (graph CS alone) is denatured by increasing the temperature to 43° C. and forms aggregates. The aggregation is measured in the spectrometer at 500 nm (light scattering by protein aggregates). The presence of HSP27 (HSP) counteracts the aggregation (cf. graph, CS+HSP). Since the addition of the test substances (BVDU and 2-(3-trichlorovinylphenylamino)-1,9-dihydropurin-6-one) inhibits the chaperone function of HSP27, the activity of the respective test substance can be determined by measuring the aggregation behaviour of the CS.
# HSP27 [3] = biological target: T1, HSP27; assay: SpeedScreen gel filtration binding test; conditions: PD SpinTraps G-25, detection by mass spectroscopy
# Source text: For the experimental validation of low-molecular-weight compounds which act as potential HSP27 inhibitors according to the in silico prediction, a method based on gel filtration was employed. The method for detecting molecular bonds using gel filtration was described in 2004 as “SpeedScreen” [Muckenschnabel et al., 2004] and was adapted to meet the requirements of the invention. […] For the separation, PD SpinTraps G-25 from GE Healthcare were used. During the 2-minute centrifugation at 800×g (according to operating instructions), these columns allow molecules with a molecular weight of greater than or equal to 5000 g/mol to pass through, while smaller molecules are retained in the matrix. The target protein HSP27 has a molecular weight of 27000 g/mol and therefore passes through the matrix. […] Non-bound low-molecular-weight compounds are retained by the matrix. Molecules that have passed through the matrix can then be detected by mass spectroscopy. This enables “binders” to be differentiated from “non-binders”. For the experimental validation of low-molecular-weight compounds which act as potential HSP27 inhibitors according to the in silico prediction, a method based on gel filtration was employed. […] Molecules that have passed through the matrix can then be detected by mass spectroscopy. […]
# T1 sequence (P04792 whole entry): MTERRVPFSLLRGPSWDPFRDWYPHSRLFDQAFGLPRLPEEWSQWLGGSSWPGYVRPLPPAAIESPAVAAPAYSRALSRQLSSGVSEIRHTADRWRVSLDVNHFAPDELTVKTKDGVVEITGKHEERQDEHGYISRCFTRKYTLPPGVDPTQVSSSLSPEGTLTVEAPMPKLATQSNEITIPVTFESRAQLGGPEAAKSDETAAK
SMILES,"safety and efficacy in patients ([1]; administered dose of 500 mg/day, oral)",tolerability in low-weight patients ([1]; increased administered dose of 760 mg/day),"final cell count (RPMI-8226 cells; bortezomib 0.075-0.275 ng/ml + 30 μmol/L BVDU (FIG. 8a), without HSP27 inhibitor 510,000 cells/ml)","final cell count (RPMI-8226 cells; bortezomib 0.1-0.3 ng/ml + 30 μM/L BVDU (FIG. 6a), without HSP27 inhibitor 950,000 cells/ml)","final cell count (RPMI-8226 cells; bortezomib 0.1-0.3 ng/ml + 30 μmol/L BVDU (FIG. 7a), without HSP27 inhibitor 950,000 cells/ml)",effect on chaperone function of HSP27 (CS aggregation) (HSP27 [2]),SpeedScreen: passage through Sephadex G-25 matrix bound to HSP27 (binder / non-binder) (HSP27 [3])
"O=c1[nH]c(=O)n([C@H]2C[C@H](O)[C@@H](CO)O2)cc1/C=C/Br [BVDU, (E)-5-(2-bromovinyl)-2′-deoxyuridine]",works safely and efficiently,proved disadvantageous for low-weight patients,"340,000 cells/ml","290,000 cells/ml","290,000 cells/ml",partially cancels the chaperone function of HSP27,
CC(=O)c1ccc2c(c1)N(CCCN(C)C)c1ccccc1S2 [Acepromazine],,,,,,,tested positively
